Measurements: PMC5608758, “A brain-targeting lipidated peptide for neutralizing RNA-mediated toxicity in Polyglutamine Diseases” (Scientific Reports, 2017)
“And” between values parts separate entries of the source, which are not always exact repeats. Equal entries are not always repeated. Residues, ends and D or L forms follow the SMILES beside them. *: point of attachment. Palmitoyl = CCCCCCCCCCCCCCCC(=O)*

What was measured:
DsRed CAG0 Drosophila = assay: Pseudopupil assay in control flies (toxicity); type: in vivo; conditions: P3V8 at up to 50 µM
Method: Flies were raised at 21.5 °C on cornmeal medium supplemented with dry yeast. Fly lines bearing UAS-DsRed CAG0 and UAS-DsRed CAG100 were kind gifts of Professor Nancy Bonini (University of Pennsylvania, USA). The gmr-GAL4 fly line was obtained from Bloomington Drosophila Stock Center. […] Pseudopupil assay was performed on 12 day-old adult flies as mentioned previously. Images were captured by SPOT Insight CCD camera controlled by the SPOT Advanced software (Diagnostic instruments Inc.). Image processing was performed using the Adobe Photoshop CS software (Adobe). Each experiment was repeated at least 3 times (n = 10 fly heads), and consistent results were obtained. For viability test of wild-type flies from egg to adult stage, eggs born within 5 hr were collected and cultured in fly food containing 10 or 50 μM of respective peptides at 21.5°C. Viability from egg-to-adult was calculated as the number of adult flies collected divided by the number of eggs examined. Each experiment was repeated for three times (at least 130 eggs were examined in each group). Two batches of independently synthesized peptides were used in the experiments.

[1] = Plasma pharmacokinetic study in SD rat
Method: SD rats (180–200 g) were anesthetized with an intraperitoneal injection of ketamine (60 mg/kg) and xylazine (6 mg/kg) and received a minor surgery of cannulation with a polythene tube (0.4 mm i.d., 0.8 mm o.d., Harvard Apparatus, Holliston, MA, USA) in the left jugular vein. The rats received an overnight recovery with free access to food and water. […] For the pharmacokinetic study, after the drug administration, blood samples were collected from the catheter at appropriate time intervals (2, 5, 10, 15, 20, 30, 45, 60, and 90 min). After each collection, 0.2 mL of saline containing 25 IU heparin was injected to compensate for the blood loss. Plasma was collected after centrifugation at 8000 rcf for 3.5 min and stored at −80°C until analysis. For brain uptake study, at 20 min, the rat was anesthetized and perfused by 500 mL saline, and the whole brain was collected. The brain was wiped by tissue paper to remove excess water, meninges and blood vessels followed by storage at −80 °C until analysis.
Aliquot of plasma sample (80 μL) was mixed with 160 μL acetonitrile. The mixture was vortexed for 1 min and followed by centrifugation at 13000 rcf for 10 min. The supernatant was collect and subjected to LC/MS/MS analysis.
Agilent 6430 Triple Quadrupole LC/MS/MS system (Agilent Technologies, CA, USA) was employed for the analysis. For analysis of P3V8, chromatographic separation was achieved on a SunFire C8 Column (250 mm × 4.6 mm, 5 µm). The mobile phase of water containing 0.2% formic acid (A) and acetonitrile (B) was used with a gradient elution (0–5 min, 20–70% B). The flow rate was 0.8 mL/min. Multiple reactions monitoring (MRM) with fragmentation transition of 500 to 129 in positive ion mode was employed for quantization of P3V8. […] Mobile phase of water (A) and acetonitrile (B) was used. The gradient elution for plasma samples was 0–4 min, 30–95% B, and for brain samples was 0–9 min, 10–95% B. The flow rate was 0.8 mL/min.
Plasma concentration verse time profiles were analyzed by WinNonlin (Pharsight Corporation, Mountain View, CA, USA, Version 2.1) to obtain the pharmacokinetics parameters. Other data were analyzed by one-way ANOVA followed by post hoc Tukey test or unpaired t-test. “*”, “**”, “***” and “****” represent P < 0.05, P < 0.01, P < 0.001 and P < 0.0001 respectively, which are considered statistically significant.

[2] = test system: pre-45s rRNA in EGFP CAG78 RNA-expressing HEK293 cells; assay: Real-time PCR of pre-45s rRNA level in cells; type: cell-based; conditions: peptide transfected with DeliverX
Method: HEK293 cells were cultured at 37 °C with 5% CO2 in DMEM supplemented with 10% FBS and 1% penicillin-streptomycin. Primary rat cortical neurons were isolated and cultured as previously described. Transient transfection of HEK293 cells was performed using Lipofectamine 2000 (Life Technologies). P3V8 were delivered to HEK293 cells using the DeliverX (DX) Peptide Transfection Kit (Affymetrix) 4 hr after DNA transfection. At least two batches of independently synthesized peptides were used in the experiments.
(§1) RNA was extracted from cells or ten 12 day-old adult fly heads by Trizol reagent (Life Technologies), and 1 μg of purified RNA was then used for reverse-transcription using the ImPromII™ Reverse Transcription System (Promega). Random hexamer (Roche) was used as primers in reverse transcription. Taqman gene expression assays were performed on an ABI 7500 Real-time PCR system and data were analyzed as previously described. The following probes were used: pre-45s rRNA (Assay ID: AILJIZM), pre-rRNA (Assay ID: AIMSG5U), Drosophila GAPDH (Assay ID: Dm01841186) and human actin (Assay ID: Hs99999903_m1). Each experiment was repeated at least 3 times.

[3] = test system: pre-rRNA in DsRed CAG100 flies; assay: Real-time PCR of pre-rRNA level in fly heads; type: in vivo, Drosophila; conditions: 1 μM peptide, 12 day-old adult fly heads
Method: as §1

expanded MJD CAG78 RNA = assay: Isothermal titration calorimetry binding assay, expanded CAG RNA
Method: (§2) Experiments were carried out using a MicroCal iTC200 isothermal titration calorimeter (GE Healthcare) at 25 °C. Data were analyzed using the Origin® scientific plotting software version 7 (Microcal Software Inc.). All RNAs and peptides were dissolved in binding buffer (20 mM MOPS, pH 7.0; 300 mM NaCl) and 0.7 mM of peptide was titrated into 0.5 µM of RNA for each experiment. The concentration of RNA was estimated with appropriate extinction coefficients at 260 nm on a Nanodrop 2000 (Thermo Scientific). A reference power of 8 μcal/s was used with an initial 0.5 µl of injection of peptide followed by 2 µl for all subsequent titrations points with a 60 sec initial equilibrium delay and 150 sec pause between injections. The samples were stirred at a speed of 1000 rpm throughout the experiment. The thermal titration data were fitted to the ‘one binding site model’ to determine the dissociation constant (KD). Each experiment was repeated at least 3 times with consistent results obtained.

MJD CAA/G78 RNA = assay: Isothermal titration calorimetry binding assay, expanded CAA/G RNA; conditions: ITC; 0.7 mM P3V8 titrated into 0.5 µM MJD CAA/G78 RNA; one binding site model; mean ± S.E.M., at least 3 independent experiments
Method: as §2

[4] = SD rats, intranasal, 3 μmol/kg, pre-treated with 0.5% chitosan, mean ± S.E.M. of 6
[5] = SD rats, intranasal, 3 μmol/kg, pre-treated with 0.5% chitosan, plasma, mean ± S.E.M. of 6
[6] = Sprague-Dawley, rat, in vivo, iv, 3 μmol/kg
[7] = Sprague-Dawley, rat, plasma, iv, 3 μmol/kg

CCCCCCCCCCCCCCCC(=O)N[C@@H](CC(=O)O)C(=O)NCC(=O)N[C@@H](CCCCN)C(=O)N[C@@H](CO)C(=O)N[C@@H](CCCCN)C(=O)NCC(=O)N[C@H](C(=O)N[C@@H](C)C(=O)N[C@@H](Cc1ccc(O)cc1)C(=O)N[C@H](C(=O)N[C@@H](CCC(=O)O)C(=O)N[C@@H](Cc1ccccc1)C(=O)N[C@@H](CCCCN)C(N)=O)[C@@H](C)CC)[C@@H](C)CC [L1P3V8] (Palmitoyl-DGKSKGIAYIEFK-NH2)
toxic effect on control flies (DsRed CAG0 Drosophila): no cytotoxic effects
AUC0-last [1, 4]: 2277 ± 558^*** min * nmol/L
T1/2 [1, 4]: 37 ± 5 min
Tmax [1, 4]: 18 ± 1 min
Cmax [1, 5]: 74 ± 13^*** nmol/L
level at time molar at 1.5 h ([1]; Sprague-Dawley, rat, in vivo, iv, 3 umol/kg): 190 nM
AUC(0-t) [1, 6]: 2.99 µM·h
Cmax [1, 6]: 10400 ± 1220 nM
Tmax [1, 6]: 2 min
half-life [1, 6]: 17 ± 4 min

Ac-DGKSKGIAYIEFK-NH2 [P3V8]
restoration of pre-45s rRNA level [2]: dose-dependent restoration
AUC0-last [1, 4]: 85 ± 32 nmol·min/L
Tmax [1, 4]: 15 min and 15 ± 4 min
Cmax [1, 5]: 12 ± 2 nM
Tmax ([1]; Sprague-Dawley, rat, plasma, iv, 3 umol/kg): 2 min
AUC(0-t) [1, 7]: 0.0202 µM·h
Cmax [1, 7]: 452 ± 22 nM
pre-rRNA level [3]: fully recovered to the DsRed CAG0 control level
improvement of binding affinity for expanded CAG RNA over P3 (expanded MJD CAG78 RNA; ITC KD relative to P3): more than 20 fold
Kd (expanded MJD CAG78 RNA; ITC, 25 °C, 20 mM MOPS pH 7.0, 300 mM NaCl, 0.7 mM peptide titrated into 0.5 µM MJD CAG78 RNA, one binding site model, mean ± S.E.M., at least 3 independent experiments): 330 ± 40 nM
Kd (MJD CAA/G78 RNA): 2940 ± 960 nM
